Assay in all cases: HTRF IP1 accumulation
Holding throughout (type): cell-based
For orientation: Time-resolved FRET reads energy transfer from a long-lived donor to a nearby acceptor.

Test [1] addresses T1, T1R2/T1R3 (human sweet taste receptor) (Homo sapiens, UniProt Q7RTX0+Q8TE23).
T1 sequence (Q8TE23 20-839): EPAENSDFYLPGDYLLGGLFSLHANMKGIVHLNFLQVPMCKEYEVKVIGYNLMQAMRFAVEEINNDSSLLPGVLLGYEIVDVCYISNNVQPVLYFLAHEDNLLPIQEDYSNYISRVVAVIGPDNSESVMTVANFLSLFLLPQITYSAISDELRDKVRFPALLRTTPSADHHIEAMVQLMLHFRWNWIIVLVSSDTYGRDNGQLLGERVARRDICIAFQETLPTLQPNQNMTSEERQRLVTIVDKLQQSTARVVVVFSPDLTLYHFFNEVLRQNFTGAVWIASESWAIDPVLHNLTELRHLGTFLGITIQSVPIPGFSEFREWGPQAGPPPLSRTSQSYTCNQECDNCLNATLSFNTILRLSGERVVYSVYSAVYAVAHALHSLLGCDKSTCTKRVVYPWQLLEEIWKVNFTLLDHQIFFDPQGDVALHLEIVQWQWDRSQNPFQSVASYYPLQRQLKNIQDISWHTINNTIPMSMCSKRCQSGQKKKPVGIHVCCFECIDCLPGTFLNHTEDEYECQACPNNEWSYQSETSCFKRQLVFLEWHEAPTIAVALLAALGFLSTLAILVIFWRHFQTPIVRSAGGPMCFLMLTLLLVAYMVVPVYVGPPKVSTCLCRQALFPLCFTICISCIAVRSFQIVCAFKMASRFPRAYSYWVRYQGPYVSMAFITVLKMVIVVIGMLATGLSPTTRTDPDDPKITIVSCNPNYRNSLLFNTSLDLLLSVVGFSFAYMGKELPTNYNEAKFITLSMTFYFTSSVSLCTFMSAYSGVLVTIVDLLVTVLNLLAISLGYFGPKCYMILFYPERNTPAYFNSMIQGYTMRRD
T1 sequence (Q7RTX0 21-852): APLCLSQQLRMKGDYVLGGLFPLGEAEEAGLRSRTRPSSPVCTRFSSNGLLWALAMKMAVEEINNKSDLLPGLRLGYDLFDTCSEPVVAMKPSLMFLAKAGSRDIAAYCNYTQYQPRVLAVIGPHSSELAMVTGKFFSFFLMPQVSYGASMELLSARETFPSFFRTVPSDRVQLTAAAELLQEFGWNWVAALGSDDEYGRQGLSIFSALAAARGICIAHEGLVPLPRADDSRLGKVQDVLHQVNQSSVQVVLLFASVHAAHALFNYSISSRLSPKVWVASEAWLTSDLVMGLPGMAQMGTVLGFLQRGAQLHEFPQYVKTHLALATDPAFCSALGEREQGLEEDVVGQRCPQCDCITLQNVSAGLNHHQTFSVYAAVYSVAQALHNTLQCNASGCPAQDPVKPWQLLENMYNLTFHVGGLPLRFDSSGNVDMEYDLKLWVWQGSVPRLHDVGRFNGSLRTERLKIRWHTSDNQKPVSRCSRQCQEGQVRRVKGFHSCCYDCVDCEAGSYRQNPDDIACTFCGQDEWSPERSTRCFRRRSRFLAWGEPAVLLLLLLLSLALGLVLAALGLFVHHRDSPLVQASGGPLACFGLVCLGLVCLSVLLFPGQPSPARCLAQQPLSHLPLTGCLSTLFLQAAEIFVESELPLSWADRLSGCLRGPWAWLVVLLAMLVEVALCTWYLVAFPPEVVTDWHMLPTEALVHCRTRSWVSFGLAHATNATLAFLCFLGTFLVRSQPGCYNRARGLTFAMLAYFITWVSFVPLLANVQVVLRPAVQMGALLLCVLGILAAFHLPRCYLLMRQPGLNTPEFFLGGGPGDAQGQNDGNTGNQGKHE
The following applies: agonist; Galpha16gus44 co-transfected; 0.05 M LiCl, 5 min exposure; unreliable.

Test [2] concerns the target T1, T1R2/T1R3 (human sweet taste receptor). The settings on record: agonist; Galpha16gus44 co-transfected; 0.05 M LiCl, 5 min exposure.
In test [3] the target is T2, T1R2/T1R3 (human sweet taste receptor) (Homo sapiens, UniProt Q7RTX0+Q8TE23, Q8TE23:R317G/Q8TE23:I486V).
T2 sequence (Q8TE23 20-839 R317G/I486V): T1 sequence (Q8TE23 20-839) with R298G, I467V
T2 sequence (Q7RTX0 21-852): T1 sequence (Q7RTX0 21-852)
The following applies: agonist; Galpha16gus44 co-transfected; 0.05 M LiCl, 5 min exposure.

Residue numbers refer to the chain shown, from its start.

Results on two compounds are retold here after publication doi:10.1101/2022.12.19.520966v1 (biorxiv, 2022).

Usually Emax stands for the greatest response seen or fitted, relative to the assay's reference. On to `OC[C@H]1OC(O)[C@H](O)[C@@H](O)[C@@H]1O` (stereo partly drawn) [D-glucose], for which the Emax in test [1] is 100%. As a reminder, the EC50 is the concentration giving half of the maximal effect. For the compound `OC[C@@H]1OC(O)[C@@H](O)[C@H](O)[C@H]1O` (stereo partly drawn) [L-glucose], the EC50 in test [2] was 2 mM; in test [3] it was ~15 mM.
